According to US7928136B2, “Substituted 2-indolinone as PTK inhibitors containing a zinc binding moiety” (Curis, Inc., priority 2006, dated 2011):

Experiments:
VEGFR2 = target: T1, VEGFR2 (Homo sapiens, UniProt P35968); assay: HTScan Receptor Kinase Assay, VEGFR2 tyrosine kinase; type: biochemical; conditions: human VEGFR2 kinase domain, 200 μM ATP
T1 construct: GST (N); HIS6 (N); Thrombin cleavage site (N); purchased Cell Signaling Technologies; host or cells: baculovirus expression system
Method: (§1) Immediately transfer enzyme from −80° C. to ice. Allowed enzyme to thaw on ice. […] Returned immediately to ice. […] Incubated reaction plate at room temperature for 30 minutes. […] Added 100 μl/well primary antibody. Incubated at room temperature for 60 minutes. […] Added 100 μl/well diluted antibody. Incubated at room temperature for 30 minutes. […] Incubated at room temperature for 5 minutes.
(§2) The following TABLE B lists compounds representative of the invention and their activity in HDAC, VEGFR2 and PDGFR assays.

HDAC = HDAC fluorimetric assay kit (AK-500, Biomol), HeLa nuclear extract; type: biochemical; conditions: Fluor de Lys substrate
Method: HDAC inhibitors were screened using an HDAC fluorimetric assay kit (AK-500, Biomol, Plymouth Meeting, Pa.). […] Each assay was setup as follows: Defrosted all kit components and kept on ice until use. Diluted HeLa nuclear extract 1:29 in Assay Buffer (50 mM Tris/Cl, pH 8.0, 137 mM NaCl, 2.7 mM KCl, 1 mM MgCl2). Prepared dilutions of Trichostatin A (TSA, positive control) and tested compounds in assay buffer (5× of final concentration). Diluted Fluor de Lys™ Substrate in assay buffer to 100 uM (50 fold=2× final). Diluted Fluor de Lys™ developer concentrate 20-fold (e.g. 50 μl plus 950 μl Assay Buffer) in cold assay buffer. Second, diluted the 0.2 mM Trichostatin A 100-fold in the 1× Developer (e.g. 10 μl in 1 ml; final Trichostatin A concentration in the 1× Developer=2 μM; final concentration after addition to HDAC/Substrate reaction=1 μM). Added Assay buffer, diluted trichostatin A or test inhibitor to appropriate wells of the microtiter plate. Added diluted HeLa extract or other HDAC sample to all wells except for negative controls. Allowed diluted Fluor de Lys™ Substrate and the samples in the microtiter plate to equilibrate to assay temperature (e.g. 25 or 37° C. Initiated HDAC reactions by adding diluted substrate (25 μl) to each well and mixing thoroughly. Allowed HDAC reactions to proceed for 1 hour and then stopped them by addition of Fluor de Lys™ Developer ([…]). Incubated plate at room temperature (25° C.) for 10-15 min. Read samples in a microtiter-plate reading fluorimeter capable of excitation at a wavelength in the range 350-380 nm and detection of emitted light in the range 440-460 nm.
as §2

PDGFR-beta = target: T2, PDGFR-beta (Homo sapiens, UniProt P09619); assay: HTScan Receptor Kinase Assay, PDGFR-beta tyrosine kinase; type: biochemical; conditions: human PDGFR-beta kinase fragment, 200 μM ATP
T2 construct: GST (N); HIS6 (N); Thrombin cleavage site (N); purchased Cell Signaling Technologies; host or cells: baculovirus expression system
Method: as §1, §2

T1 sequence (P35968 807-1356 limits assumed): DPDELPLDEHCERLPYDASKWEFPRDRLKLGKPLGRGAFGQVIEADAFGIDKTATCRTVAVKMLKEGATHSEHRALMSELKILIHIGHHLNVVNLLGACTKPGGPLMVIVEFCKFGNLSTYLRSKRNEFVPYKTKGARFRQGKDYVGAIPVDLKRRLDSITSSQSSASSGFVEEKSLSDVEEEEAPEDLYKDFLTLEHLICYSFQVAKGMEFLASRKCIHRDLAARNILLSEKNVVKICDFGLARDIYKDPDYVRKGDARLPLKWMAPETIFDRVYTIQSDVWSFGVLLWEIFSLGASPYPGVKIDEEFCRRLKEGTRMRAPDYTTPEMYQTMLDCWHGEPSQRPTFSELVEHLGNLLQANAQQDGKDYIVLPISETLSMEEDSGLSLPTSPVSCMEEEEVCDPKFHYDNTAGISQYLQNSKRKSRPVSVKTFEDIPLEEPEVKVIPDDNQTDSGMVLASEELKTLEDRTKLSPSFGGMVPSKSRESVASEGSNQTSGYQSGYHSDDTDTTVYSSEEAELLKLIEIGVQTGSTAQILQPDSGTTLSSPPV
T2 sequence (P09619 561-1106): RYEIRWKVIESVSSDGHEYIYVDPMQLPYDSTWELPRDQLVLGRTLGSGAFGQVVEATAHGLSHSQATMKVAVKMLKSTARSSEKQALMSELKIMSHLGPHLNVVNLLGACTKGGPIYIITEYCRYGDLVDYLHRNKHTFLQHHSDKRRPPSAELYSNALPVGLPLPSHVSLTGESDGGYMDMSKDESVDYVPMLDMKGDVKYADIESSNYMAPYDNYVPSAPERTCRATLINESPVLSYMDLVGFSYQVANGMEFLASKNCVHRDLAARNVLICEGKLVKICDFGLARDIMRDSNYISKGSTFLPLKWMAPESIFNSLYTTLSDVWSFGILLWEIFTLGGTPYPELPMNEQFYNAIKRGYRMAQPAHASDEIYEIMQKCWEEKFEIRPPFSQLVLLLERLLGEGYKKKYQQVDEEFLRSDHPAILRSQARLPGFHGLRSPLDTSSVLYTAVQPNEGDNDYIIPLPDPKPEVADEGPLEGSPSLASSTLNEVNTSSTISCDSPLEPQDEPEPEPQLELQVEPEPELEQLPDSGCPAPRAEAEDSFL

Row | SMILES | IC50 (VEGFR2) | IC50 (HDAC) | IC50 (PDGFR-beta) | melting point
1 | Cc1[nH]c(/C=C2\C(=O)Nc3ccc(F)cc32)c(C)c1C(=O)NCCOc1ccc(C(=O)NO)cc1 [Compound 8, (Z)-5-((5-fluoro-2-oxoindolin-3-ylidene)methyl)-N-(2-(4-(hydroxycarbamoyl)phenoxy)ethyl)-2,4-dimethyl-1H-pyrrole-3-carboxamide] | – | 100 to 1000 nM | – | –
2 | Cc1[nH]c(/C=C2\C(=O)Nc3ccc(F)cc32)c(C)c1C(=O)NCCCCCC(=O)N(C)O [Compound 9, (Z)-5-((5-fluoro-2-oxoindolin-3-ylidene)methyl)-N-(6-(hydroxy(methyl)amino)-6-oxohexyl)-2,4-dimethyl-1H-pyrrole-3-carboxamide] | < 100 nM | > 10000 nM | – | –
3 | Cc1[nH]c(/C=C2\C(=O)Nc3ccc(F)cc32)c(C)c1C(=O)NCCOc1ccc(/C=C/C(=O)NO)cc1 [Compound 14, 5-((Z)-(5-fluoro-2-oxoindolin-3-ylidene)methyl)-N-(2-(4-((E)-3-(hydroxyamino)-3-oxoprop-1-enyl)phenoxy)ethyl)-2,4-dimethyl-1H-pyrrole-3-carboxamide] | < 100 nM | 100 to 1000 nM | – | –
4 | Cc1[nH]c(/C=C2\C(=O)Nc3ccc(F)cc32)c(C)c1C(=O)NCCCCCCC(=O)NO [Compound 15, (Z)-5-((5-Fluoro-2-oxoindolin-3-ylidene)methyl)-N-(7-(hydroxyamino)-7-oxoheptyl)-2,4-dimethyl-1H-pyrrole-3-carboxamide] | < 100 nM | < 100 nM | 100 to 1000 nM | 221 °C (dec.)
5 | Cc1[nH]c(/C=C2\C(=O)Nc3ccc(F)cc32)c(C)c1C(=O)NCCCCCCCC(=O)NO [Compound 16, (Z)-5-((5-Fluoro-2-oxoindolin-3-ylidene)methyl)-N-(8-(hydroxyamino)-8-oxooctyl)-2,4-dimethyl-1H-pyrrole-3-carboxamide] | < 100 nM | < 100 nM | 100 to 1000 nM | 213.7 °C (dec.)

Next, values leading:

Row | IC50 (VEGFR2) | IC50 (HDAC) | IC50 (PDGFR-beta) | melting point | SMILES
6 | < 100 nM | 100 to 1000 nM | 100 to 1000 nM | – | Cc1[nH]c(/C=C2\C(=O)Nc3ccc(F)cc32)c(C)c1C(=O)NCCC(=O)NO [Compound 2, N-(2-(hydroxycarbamoyl)ethyl)-5-((Z)-(5-fluoro-2-oxoindolin-3-ylidene)methyl)-2,4-dimethyl-1H-pyrrole-3-carboxamide]
7 | < 100 nM | 1000 to 10000 nM | < 100 nM | – | Cc1[nH]c(/C=C2\C(=O)Nc3ccc(F)cc32)c(C)c1C(=O)NCCCC(=O)NO [Compound 3, N-(3-(hydroxycarbamoyl)propyl)-5-((Z)-(5-fluoro-2-oxoindolin-3-ylidene)methyl)-2,4-dimethyl-1H-pyrrole-3-carboxamide]
8 | < 100 nM | 100 to 1000 nM | < 100 nM | 209.7 °C (dec.) | Cc1[nH]c(/C=C2\C(=O)Nc3ccc(F)cc32)c(C)c1C(=O)NCCCCCC(=O)NO [Compound 4, N-(5-(hydroxycarbamoyl)pentyl)-5-((Z)-(5-fluoro-2-oxoindolin-3-ylidene)methyl)-2,4-dimethyl-1H-pyrrole-3-carboxamide]
